Assay results reported in patent publication US10588921B2, “Drug for the treatment of cholesterol accumulation disorders” (NATIONAL UNIVERSITY CORPORATION KUMAMOTO UNIVERSITY, priority 2013, dated 2020).
Entries after “also recorded” stand apart in the source; their conditions may differ.

Key:
p62 [1] = assay: Count of insoluble p62 granules in HLCs (IN CELL ANALYZER); type: cell-based, human; conditions: 1 mM HPCD, 4 days; FIG. 24
Protocol: Alkaline phosphatase staining was performed using the Leukocyte Alkaline Phosphatase kit (SIGMA). For immunocytochemistry, cells were fixed with PBS containing 4% paraformaldehyde for 30 min at 4° C. For the molecules localized in nucleus, samples were treated with 0.2% Triton X-100 for 15 min at room temperature (RT). The cells were washed three times with PBS containing 2% FBS and then incubated overnight at 4° C. in PBS containing 2% FBS with primary antibodies. Nucleuses were stained with Propidium Iodide (PI, WAKO, Japan) and 1 mg/ml Hoechst 33258 (Invitrogen). The list of the primary and secondary antibodies is described in Table 3. For Filipin staining, samples were washed with PBS three times after the fixing and incubated with PBS containing 1.5 mg/ml glycine for 10 min at RT. The samples were then treated with PBS containing 10% FBS and 50 mg/ml Filipin (SIGMA). The data was calculated by UV absorption (360/460) and analyzed with Developer Toolbox software of IN CELL ANALYZER 6000 (GE Healthcare). The number of insoluble p62 granules were counted by IN CELL ANALYZER 6000 (GE Healthcare). […]
(§1) HLCs were culture with 1 mM 2-hydroxypropylcyclodextrins (HPCDs) for 4 days, and ATP level, expression levels of LC3 and p62, and insoluble p62 granules were measured.

p62 [2] = assay: Immunoblot of insoluble p62 in HLCs; type: cell-based, human; conditions: 1 mM HPCD, 4 days; FIG. 23
Protocol: (§2) Protein lysates were separated by SDS-PAGE and transferred to PVDF membrane. LC3-I and LCS3-II were detected by anti-LC3 antibody (Cell Signaling). The data are normalized to α-tubulin expression. The HLCs were solved in RIPA buffer and then insoluble p62 was collected as a pellet after the centrifuge of the samples.
as §1

cultured cells = conditions: Non-Patent Document 5; cited from earlier work
normal mice = assay: Acute toxicity test in normal mice; type: in vivo, mouse; conditions: 14.4 mM, 19.18 ml/g subcutaneous, 8-week-old normal mice; FIG. 34
Protocol: To confirm the excellent safety of HPGCD, acute toxicity was tested using normal mice. 14.4 mM HPBCD or HPGCD were injected in the amount of 19.18 ml/g into subcutaneous tissues of 8-week-old mice (n=10), and then survival rates were calculated.

NPC model mice [3] = assay: Survival of NPC model mice; type: in vivo, mouse; conditions: 4-week-old model mice injected once a week; FIG. 33
Protocol: To evaluate the effect of HPGCD treatment on NPC mice survival, 4-week-old model mice were injected with HPGCD one a week (HPGCD injection group: n=6, control (saline injection) group: n=6).

LC3 = assay: Immunoblot of LC3 expression in HLCs; type: cell-based, human; conditions: 1 mM HPCD, 4 days; FIG. 22
Protocol: as §2, §1

isolated erythrocyte = conditions: in vitro; cited from earlier work
NPC model mice [4] = assay: HPGCD treatment of NPC model mice (serum markers, histology, autophagy); type: in vivo, mouse
Protocol: Effects of HPGCD treatment on cholesterol accumulation in NPC-derived HLCs were evaluated using NPC-model mice. NPC model mice bear a spontaneous mutation of the Npc1 gene that causes a defect in lysosome to ER trafficking of cholesterol. […] The model mice show liver injury and neural functional impairment and die before 12 weeks old without proper treatment.
4-week-old NPC mice were treated with HPGCD (4000 mg/kg) once a week until 8.5 weeks of age (5 injections in total), followed by sample collection. Control was treated with saline. The experiments were conducted twice (first; n=6; second: n=4).

NPC-derived HLCs [5] = assay: Cell size of HLCs; type: cell-based, human; conditions: data not shown
Protocol: The cell sizes of albumin-positive cells was calculated by Developer Toolbox software of IN CELL ANALYZER 6000 (GE Healthcare).
(§3) The size of HLCs is decreased by the treatments with HPBCD and HPGCD (data not shown). Effects of various concentration of HPBCD and HPGCD in NPC-derived HLCs was observes. HLCs were cultured with HPBCD or HPGCD for 4 days, stained with filipin and analyzed with an IN CELL ANALYSER (GE Healthcare).

NPC-derived HLCs [6] = type: cell-based, human
Protocol: For hepatocyte-like cell (HLC) induction, the culture medium of semi-confluent human iPS cells were switched from the iPS medium to the definitive endoderm differentiation medium containing RPMI1640 supplemented with 2% B27 (Life technologies), 100 ng/m1 Activin A and 1 mM Sodium butyrate (NaB, SIGMA). The NaB concentration is changed in 0.5 mM on day 2. On day 4, the cells were harvested and re-seeded onto Matrigel-coated dishes in hepatic differentiation medium containing DMEM supplemented with 20% KSR, 1 mM glutamine, 1 mM NEAA, 0.1 mM 2-mercaptoethanol (SIGMA), 1% Dimethyl sulfoxide (DMSO, SIGMA). CXCR4 expressions were examined by FACS on day 4. On day 11, the cells were harvested and re-cultured in the hepatic maturation medium containing L15 medium (SIGMA) supplemented with 8.3% FBS, 8.3% tryptose phosphate broth (SIGMA), 10 mM hydrocortisone 21-hemisuccinate (SIGMA), 1 mM insulin (SIGMA), 2 mM glutamine, lOng/ml Hepatocyte growth factor (HGF, R & D) and 20 ng/ml Oncostatin M (OSM, R & D). On day 18, the cells were used for various experiments. For the hydroxypropyl cyclodextrin treatments, HLCs were cultured with 0.1 mM or 1 mM of the hydroxypropyl cyclodextrins for four days. For Annexin and TUNEL stainings, HLCs are cultured for four days and a week from day 18, respectively.
Alkaline phosphatase staining was performed using the Leukocyte Alkaline Phosphatase kit (SIGMA). For immunocytochemistry, cells were fixed with PBS containing 4% paraformaldehyde for 30 min at 4° C. For the molecules localized in nucleus, samples were treated with 0.2% Triton X-100 for 15 min at room temperature (RT). The cells were washed three times with PBS containing 2% FBS and then incubated overnight at 4° C. in PBS containing 2% FBS with primary antibodies. Nucleuses were stained with Propidium Iodide (PI, WAKO, Japan) and 1 mg/ml Hoechst 33258 (Invitrogen). The list of the primary and secondary antibodies is described in Table 3. For Filipin staining, samples were washed with PBS three times after the fixing and incubated with PBS containing 1.5 mg/ml glycine for 10 min at RT. The samples were then treated with PBS containing 10% FBS and 50 mg/ml Filipin (SIGMA). The data was calculated by UV absorption (360/460) and analyzed with Developer Toolbox software of IN CELL ANALYZER 6000 (GE Healthcare). The number of insoluble p62 granules were counted by IN CELL ANALYZER 6000 (GE Healthcare). To investigate glycogen accumulation, Periodic acid Schiff (PAS) staining of hepatocyte-like cells were performed by PAS staining solution (Muto Pure chemicals, Tokyo, Japan), according to the manufacturer's protocol.
The inventors therefore treated the HLCs derived from normal and NPC-iPS cell lines with a series of 2-hydroxypropyl-cyclodextrins with different cavity sizes, and observed effect of a series of hydroxypropyl-cyclodextrins. HLCs were cultured with 1 mM of the indicated hydroxypropyl-cyclodextrin for 4 days, stained with filipin and analyzed with an IN CELL ANALYSER (GE Healthcare) (FIG. 18).
as §3

NPC-derived HLCs [7] = assay: Measurement of ATP in HLCs; type: cell-based, human; conditions: 1 mM HPCD, 4 days; FIG. 21
Protocol: Hepatocyte-like cells derived from the iPSC lines were cultured in DMEM medium in the absence of glucose for 24 hours and were then cultured in the DMEM medium containing 10% FBS and high glucose for 6 hours. ATP was measured by ATP measurement Kit (TOYO INK), according to the manufacturer's protocol.
as §1

[8] = 4000 mg/kg once a week from 4 to 8.5 weeks of age, FIG. 30

In the case of 2-hydroxypropyl-γ-cyclodextrin [HPGCD], the “proportion of HLCs carrying more than 40 granules of insoluble p62 aggregation” value (p62 [1]) is listed as “greatly reduced”, the “amount of insoluble p62” value (p62 [2]) is listed as “reduced the amount of insoluble p62” and the cholesterol dissolution activity (cultured cells) is listed as “a several tenth part or less, compared with that of HPBCD”. For the same substance, the “survival after injection (acute toxicity)” value (normal mice) was “no mice dies”, the NPC mouse survival (NPC model mice [3]) was “significantly prolonged” and the “expression level of LC3” value (LC3) was “recovered to normal levels”. The “hemolytic activity (order)” value (isolated erythrocyte) was “HPBCD>HPACD>HPGCD”, the “ALT (alanine aminotransferase), serum marker for liver injury” value (NPC model mice [4]; [8]) was “markedly and significantly reduced” and the “AST (aspartate aminotransferase), serum marker for liver injury” value (NPC model mice [4]; [8]) was “markedly and significantly reduced”. For the same substance, the “histological analysis of livers” value (NPC model mice [4]; 4000 mg/kg once a week, FIG. 31) was “marked morphological improvement”, the “deletion of Purkinje cells in the cerebellum” value (NPC model mice [4]; 4000 mg/kg once a week, FIG. 32) was “rescued; also recorded: restored” and the “abnormal autophagy in NPC mice” value (NPC model mice [4]; data not shown) was “restored”. The “expression level of LC3 in livers and brains” value (NPC model mice [4]; data not shown) was “restored to the normal level”, the “expression level of insoluble p62 in livers and brains” value (NPC model mice [4]; data not shown) was “restored to the normal level” and the “size of HLCs” value (NPC-derived HLCs [5]) was “decreased”. The “activity on hepatocyte-like cells differentiation-induced from NPC patient-derived iPS cells” value (NPC-derived HLCs [6]) was “equal to or more than that of HPBCD”, the “cholesterol accumulated in hepatocyte-like cells derived from NPC” value (NPC-derived HLCs [6]) was “removed cholesterol accumulated in hepatocyte-like cells derived from NPC” and the “function of the hepatocyte-like cells” value (NPC-derived HLCs [6]) was “recovered the function of the hepatocyte-like cells”. The “cholesterol accumulation in NPC-HLCs (filipin staining)” value (NPC-derived HLCs [6]; 1 mM hydroxypropyl-cyclodextrin, 4 days, FIG. 18) was “reduced the cholesterol accumulation in NPC-HLCs to the same extent as that observed for HPBCD”, the “cholesterol accumulation in NPC-derived HLCs (filipin staining)” value (NPC-derived HLCs [6]; low concentration 100 μM, 4 days, FIG. 19) was “ineffective for reducing cholesterol accumulation” and the ATP level (NPC-derived HLCs [7]) was “recovered”.
